What follows are compounds tested against Complex I (Bos taurus, UniProt P25708) (assay: Determination of Complex I mediated ROS-inhibition (CI)). Details: read-out: CI IC50.
Type: biochemical, bovine

Row | SMILES | IC50 [nM]
1 | CN1[C@@H]2CC[C@H]1CC(Nc1ccc3c(c1)/C(=C1\COCCN1)C(=O)N3C1CCOCC1)C2 (stereo partly drawn) [Compound 101] | 202
2 | CN1C(=O)/C(=C2/COCCN2)c2cc(NC3CC4CCC(C3)N4C)ccc21 (stereo not drawn) [Compound 131] | 189
3 | CC(C)N1C(=O)/C(=C2/COCCN2)c2cc(NC3C[C@H]4CC[C@@H](C3)N4C)ccc21 (stereo partly drawn) [Compound 123] | 916

Same assay, conditions: read-out: CI IC50; Complex I purified from bovine heart; ROS detected via Amplex Red/horse radish peroxidase; 8 point concentration-response

Row | SMILES | IC50 [nM]
4 | CC(C)Nc1ccc2c(c1)/C(=C1\CCOCCN1)C(=O)N2C1CCOCC1 [Compound 30] | 195

What follows are compounds tested on mice neuroblastoma cells (HT-22) (assay: Determination of Cellular Protection (HT22)). Details: Mus musculus, HT-22, 16 h, read-out: HT22 IC50.

Row | SMILES | IC50 [nM]
5 | CN1[C@@H]2CC[C@H]1CC(Nc1ccc3c(c1)/C(=C1\COCCN1)C(=O)N3C1CCOCC1)C2 (stereo partly drawn) [Compound 101] | 369
6 | CN1C(=O)/C(=C2/COCCN2)c2cc(NC3CC4CCC(C3)N4C)ccc21 (stereo not drawn) [Compound 131] | 111
7 | CN1C(=O)/C(=C2/CCN(C3CCOC3)CCN2)c2cc(N3CCCC3)ccc21 (stereo not drawn) [Compound 155] | 214
8 | CC(C)C(C)Nc1ccc2c(c1)/C(=C1\COCCN1)C(=O)N2C1COCCOC1 (stereo not drawn) [Compound 27] | 15
9 | Nc1ccc2c(c1)/C(=C1\COCCN1)C(=O)N2C1CCOCC1 [Compound 35] | 2720
10 | CC(Nc1ccc2c(c1)/C(=C1\COCCN1)C(=O)N2C1CCOCC1)c1ccnn1C (stereo not drawn) [Compound 79] | 221
11 | CC(C)C(C)Nc1ccc2c(c1)/C(=C1\COCCN1)C(=O)N2C1COC1 (stereo not drawn) [Compound 66] | 19
12 | CC(C)Nc1ccc2c(c1)/C(=C1\CN(C3CCOCC3)CCN1)C(=O)N2C(C)C [Compound 134] | 44
13 | CC(C)N1C(=O)C(=C2CCOCC2)c2cc(NC3CCC3)ccc21 [Compound 25] | 96
14 | O=C1/C(=C2/COCCN2)c2cc(NCc3cc[nH]n3)ccc2N1C1CCOCC1 [Compound 21] | 253
15 | CC(C)N1C(=O)/C(=C2/COCCN2)c2cc(NC3CCOCC3F)ccc21 (stereo not drawn) [Compound 73] | 264
16 | CCC(CC)Nc1ccc2c(c1)/C(=C1\COCCN1)C(=O)N2C1CCOCC1 [Compound 76] | 24
17 | O=C1/C(=C2/COCCN2)c2cc(N3CCCCC3)ccc2N1C1CCOCC1 [Compound 86] | 1110
18 | O=C1C(=C2CCOCC2)c2cc(N3CCCC3)ccc2N1C1CCOCC1 [Compound 112] | 86
19 | CC(C)N1C(=O)/C(=C2/CCOCCN2)c2cc(N3C(C)CCC3C)ccc21 (stereo not drawn) [Compound 128] | 47
20 | CC(=O)N1CCC2(CC1)CN/C(=C1\C(=O)N(C(C)C)c3ccc(N4CCCC4)cc31)CO2 [Compound 53] | 55
21 | O=C1/C(=C2/COCCN2)c2cc(NC3CCOCC3)ccc2N1C1CCOCC1 [Compound 18] | 409
22 | O=C1/C(=C2/COCCN2)c2cc(NC3CCOCC3F)ccc2N1C1CCOCC1 (stereo not drawn) [Compound 80] | 345
23 | CC(=O)N1CCN/C(=C2\C(=O)N(C(C)C)c3ccc(NC(C)C)cc32)C1 [Compound 159] | 80
24 | CC(C)Nc1ccc2c(c1)/C(=C1\CN(C(C)C)CCN1)C(=O)N2C1CCOCC1 [Compound 46] | 48
25 | O=C1/C(=C2/CCOCCN2)c2cc(NC3CCOC3)ccc2N1C1CCOCC1 (stereo not drawn) [Compound 140] | 524

Row | SMILES | IC50 [nM]
26 | CC(C)N1CCN/C(=C2\C(=O)N(C)c3ccc(N4CCCC4)cc32)CC1 [Compound 110] | 19
27 | CC(C)Nc1ccc2c(c1)/C(=C1\CN(C(C)C)CCN1)C(=O)N2C(C)C [Compound 88] | 10
28 | CC(C)Nc1ccc2c(c1)/C(=C1\COCCN1)C(=O)N2C(C)C [Compound 44] | 30
29 | CC(Nc1ccc2c(c1)/C(=C1\COCCN1)C(=O)N2C(C)C)C1CCC1 (stereo not drawn) [Compound 37] | 3
30 | CC(C)Nc1ccc2c(c1)/C(=C1\CCN(C(C)C)CCN1)C(=O)N2C1CCOCC1 [Compound 164] | 30
31 | CC1CCC(C)N1c1ccc2c(c1)/C(=C1\COCCN1)C(=O)N2C1CCOC1 (stereo not drawn) [Compound 162] | 61
32 | CC(C)N1C(=O)/C(=C2/COCCN2)c2cc(NC(C)C(C)(C)C)ccc21 (stereo not drawn) [Compound 55] | 38
33 | CC1CCC(C)N1c1ccc2c(c1)/C(=C1\COCCN1)C(=O)N2C (stereo not drawn) [Compound 84] | 141
34 | O=C1/C(=C2/COCCN2)c2cc(NC3CCCC3)ccc2N1C1CCOCC1 [Compound 60] | 10
35 | CC1CCCC1Nc1ccc2c(c1)/C(=C1\COCCN1)C(=O)N2C(C)C (stereo not drawn) [Compound 124] | 15
36 | O=C1/C(=C2/COCCN2)c2cc(NCC3CC3)ccc2N1C1CCOCC1 [Compound 103] | 105
37 | CN1C(=O)/C(=C2/CCN(C(=O)OCc3ccccc3)CCN2)c2cc(N3CCCC3)ccc21 [Compound 152] | 47
38 | CC(C)N1C(=O)/C(=C2/COCCN2)c2cc(NC3CCC(F)(F)CC3)ccc21 [Compound 72] | 6
39 | CC(C)N1CCC(Nc2ccc3c(c2)/C(=C2\COCCN2)C(=O)N3C(C)C)CC1 [Compound 96] | 41
40 | COCC(C)Nc1ccc2c(c1)/C(=C1\COCCN1)C(=O)N2C1CCOCC1 (stereo not drawn) [Compound 99] | 163
41 | CN1C(=O)/C(=C2/CCN(C3COC3)CCN2)c2cc(N3CCCC3)ccc21 [Compound 45] | 261
42 | CN(C)c1ccc2c(c1)/C(=C1\CCCCCN1)C(=O)N2C [Compound 105] | 91
43 | CN(C)c1ccc2c(c1)/C(=C1\COCCN1)C(=O)N2C [Compound 2] | 1050
44 | CN(C)c1ccc2c(c1)/C(=C1/NCCN1c1ccccc1)C(=O)N2C [Compound 106] | 142
45 | CC1CCC(C)N1c1ccc2c(c1)/C(=C1\COCCCN1)C(=O)N2C1CCOCC1 (stereo not drawn) [Compound 142] | 94
46 | CC1COC/C(=C2/C(=O)N(C3CCOCC3)c3ccc(N4C(C)CCC4C)cc32)N1 (stereo not drawn) [Compound 93] | 101

Row | SMILES | IC50 [nM]
47 | CC1CCC(C)N1c1ccc2c(c1)/C(=C1\CCOCCN1)C(=O)N2C1CCOCC1 (stereo not drawn) [Compound 29] | 142
48 | CC(C)Nc1ccc2c(c1)/C(=C1\CCOCCN1)C(=O)N2C(C)C [Compound 82] | 26
49 | CC(Nc1ccc2c(c1)/C(=C1\COCCN1)C(=O)N2C(C)C)c1cncnc1 (stereo not drawn) [Compound 126] | 179
50 | CC(C)Nc1ccc2c(c1)/C(=C1\CCOCCN1)C(=O)N2C1CCOCC1 [Compound 30] | 135
51 | CC(Nc1ccc2c(c1)/C(=C1\COCCN1)C(=O)N2C1CCOCC1)C1CC1 (stereo not drawn) [Compound 20] | 34
52 | CC(C)N1C(=O)/C(=C2/CCOCCN2)c2cc(N3CCCC3)ccc21 [Compound 129] | 23
53 | CN1C(=O)/C(=C2/CCNCCN2)c2cc(N3CCCC3)ccc21 [Compound 40] | 13
54 | CC(C)Nc1ccc2c(c1)/C(=C1\COCCN1)C(=O)N2C(C)(C)C [Compound 90] | 32
55 | CC(Nc1ccc2c(c1)/C(=C1\COCCN1)C(=O)N2C(C)C)c1cnccn1 (stereo not drawn) [Compound 57] | 199
56 | CCC(CC)Nc1ccc2c(c1)/C(=C1\COCCN1)C(=O)N2C1COC1 [Compound 136] | 18
57 | COCC(C)N1C(=O)/C(=C2/COCCN2)c2cc(N3CCCC3)ccc21 (stereo not drawn) [Compound 68] | 134
58 | COCC(C)N1C(=O)/C(=C2/COCCN2)c2cc(N3CCC(O)C3)ccc21 (stereo not drawn) [Compound 119] | 439
59 | CC(Nc1ccc2c(c1)/C(=C1\COCCN1)C(=O)N2C(C)C)c1ccncc1 (stereo not drawn) [Compound 143] | 110
60 | CC(C)CNc1ccc2c(c1)/C(=C1\COCCN1)C(=O)N2C(C)C [Compound 173] | 32
61 | CC(C)N1C(=O)/C(=C2/COCCN2)c2cc(N3CCOCC3)ccc21 [Compound 166] | 649
62 | CC(=O)N1CCN/C(=C2\C(=O)N(C3CCOCC3)c3ccc(NC(C)C)cc32)C1 [Compound 111] | 249
63 | CNc1ccc2c(c1)/C(=C1\CCCN1)C(=O)N2C1CCOCC1 [Compound 43] | 124
64 | CC(Nc1ccc2c(c1)/C(=C1\COCCN1)C(=O)N2C1COC1)C1CC1 (stereo not drawn) [Compound 67] | 37
65 | CC(C)N1C(=O)/C(=C2/CCCCN2)c2cc(N3CCOCC3)ccc21 [Compound 158] | 2070
66 | CCOC(=O)N1CCC(N2C(=O)/C(=C3/COCCN3)c3cc(N(C)C)ccc32)CC1 [Compound 89] | 493
67 | CC(=O)N1CCN/C(=C2\C(=O)N(C3CCOCC3)c3ccc(N4CCCC4)cc32)CC1 [Compound 12] | 191

Row | SMILES | IC50 [nM]
68 | O=C1/C(=C2/CC3(CN2)COC3)c2cc(NC3CCOC3)ccc2N1C1CCOCC1 (stereo not drawn) [Compound 70] | 1150
69 | CC(C)N1C(=O)/C(=C2/COCCN2)c2cc(NC3CCCC3)ccc21 [Compound 94] | 27
70 | CC(C)N1C(=O)/C(=C2/COCCN2)c2cc(NC3C[C@H]4CC[C@@H](C3)N4C)ccc21 (stereo partly drawn) [Compound 123] | 17
71 | O=C1/C(=C2/CCOCCN2)c2cc(NC3CCCC3)ccc2N1C1CCOCC1 [Compound 13] | 14
72 | CC(C)N1C(=O)/C(=C2/CCOCCN2)c2cc(NC3CCC3)ccc21 [Compound 22] | 11
73 | CC(Nc1ccc2c(c1)/C(=C1\COCCN1)C(=O)N2C(C)C)C1CC1 (stereo not drawn) [Compound 97] | 17
74 | CC(Nc1ccc2c(c1)/C(=C1\COCCN1)C(=O)N2C(C)C)c1ccnn1C (stereo not drawn) [Compound 17] | 159
75 | CC(C)N1C(=O)/C(=C2/COCCN2)c2cc(NC3CCOCC3)ccc21 [Compound 36] | 56
76 | O=C1/C(=C2/CCN(C3COC3)CCN2)c2cc(N3CCCC3)ccc2N1C1CCOCC1 [Compound 121] | 192
77 | O=C1/C(=C2/COCCN2)c2cc(NCC3CCOCC3)ccc2N1C1CCOCC1 [Compound 81] | 233
78 | CC(C)Nc1ccc2c(c1)C(=C1CCOCC1)C(=O)N2C(C)C [Compound 47] | 85
79 | O=C1/C(=C2/COCCN2)c2cc(NC3CCC3)ccc2N1C1CCOC1 (stereo not drawn) [Compound 14] | 20
80 | CC(C)N1C(=O)/C(=C2/COCCN2)c2cc(NCC3CCOCC3)ccc21 [Compound 75] | 73
81 | CC(=O)N1CCC(Nc2ccc3c(c2)/C(=C2\COCCN2)C(=O)N3C(C)C)CC1 [Compound 172] | 279
82 | COCC(C)N1C(=O)/C(=C2/COCCN2)c2cc(NC(C)C)ccc21 (stereo not drawn) [Compound 28] | 118
83 | COC1COCCC1Nc1ccc2c(c1)/C(=C1\COCCN1)C(=O)N2C1CCOCC1 (stereo not drawn) [Compound 149] | 2940
84 | CC(C)Nc1ccc2c(c1)/C(=C1\COCCN1)C(=O)N2[C@H]1CCN(C(C)C)C1 [Compound 31] | 41
85 | O=C1/C(=C2/COCCN2)c2cc(NC3CCOC3)ccc2N1C1CCOC1 (stereo not drawn) [Compound 168] | 439
86 | CC(C)C(C)Nc1ccc2c(c1)/C(=C1\COCCN1)C(=O)N2C(C)C (stereo not drawn) [Compound 95] | 6
87 | CC(Nc1ccc2c(c1)/C(=C1\COCCN1)C(=O)N2C1CCOCC1)c1ccccn1 (stereo not drawn) [Compound 77] | 48

Reference: patent EP4291552B1, “MODULATORS OF COMPLEX I” (Boehringer Ingelheim International GmbH, priority 2021, dated 2022)
